In ChEMBL document CHEMBL3217566, “Unprecedented inhibition of resistant penicillin binding proteins by bis-2-oxoazetidinyl macrocycles” (Medchemcomm, 2012):

Assays:
Staphylococcus aureus = experiment: Inhibition of methicillin-resistant Staphylococcus aureus ATCC 43300 PBP5 assessed as residual activity at 1 mM after 4 hrs by fluorescence spectroscopy in presence of fluorescein-labeled ampicillin
Actinomadura sp. R39 = experiment: Inhibition of Actinomadura R39 D,D-peptidase assessed as inhibition of hydrolysis of thiolester substrate S2d measured as residual activity at 100 uM after 1 hr by Ellman's method
Enterococcus faecium = experiment: Inhibition of Enterococcus faecium D63r PBP5 assessed as assessed as residual activity at 1 mM after 4 hrs by fluorescence spectroscopy in presence of fluorescein-labeled ampicillin

## CCCCCCC(=O)N[C@H]1CN(C(=O)CCCCCCC(=O)N2C[C@H](NC(=O)CCCCCC)C2=O)C1=O
Staphylococcus aureus
  Activity: 99%
Actinomadura sp. R39
  Activity: 74%
Enterococcus faecium
  Activity: 10%

## C=CCCCCC(=O)N[C@H]1CN(C(=O)CCCC=C)C1=O
Staphylococcus aureus
  Activity: 85%
Actinomadura sp. R39
  Activity: 74%
Enterococcus faecium
  Activity: 21%

## C=CCCCCC(=O)N1C[C@H](NC(=O)CCC=C)C1=O
Staphylococcus aureus
  Activity: 77%
Actinomadura sp. R39
  Activity: 72%
Enterococcus faecium
  Activity: 50%

## C=CCCCCC(=O)N[C@H]1CN(C(=O)CCC=C)C1=O
Staphylococcus aureus
  Activity: 89%
Actinomadura sp. R39
  Activity: 91%
Enterococcus faecium
  Activity: 14%

## C=CCCCCC(=O)N[C@H]1CN(C(=O)CCCC)C1=O
Staphylococcus aureus
  Activity: 100%
Actinomadura sp. R39
  Activity: 97%
Enterococcus faecium
  Activity: 5%

## C=CCCC(=O)N[C@H]1CN(C(=O)CCC=C)C1=O
Staphylococcus aureus
  Activity: 79%
Actinomadura sp. R39
  Activity: 72%
Enterococcus faecium
  Activity: > 100%

## C=CCCCCC(=O)N[C@H]1CN(C(=O)CCCCC=C)C1=O
Staphylococcus aureus
  Activity: 81%
Actinomadura sp. R39
  Activity: 80%
Enterococcus faecium
  Activity: 23%

## C=CCCCCC(=O)N1C[C@H](NC(=O)CCCC=C)C1=O
Staphylococcus aureus
  Activity: 82%
Actinomadura sp. R39
  Activity: 86%
Enterococcus faecium
  Activity: 15%

## CCCCC(=O)N1C[C@H](NC(=O)CCCCCCCCCCC(=O)N[C@H]2CN(C(=O)CCCC)C2=O)C1=O
Staphylococcus aureus
  Activity: 90%
Actinomadura sp. R39
  Activity: 89%
Enterococcus faecium
  Activity: 3%

## C=CCCCC(=O)N[C@H]1CN(C(=O)CCC=C)C1=O
Staphylococcus aureus
  Activity: 93%
Actinomadura sp. R39
  Activity: 98%
Enterococcus faecium
  Activity: 14%

## CCCCCCC(=O)N[C@H]1CN(C(=O)CC/C=C/CCC(=O)N2C[C@H](NC(=O)CCCCCC)C2=O)C1=O
Staphylococcus aureus
  Activity: 100%
Actinomadura sp. R39
  Activity: 100%
Enterococcus faecium
  Activity: 0%

## CCCCC(=O)N1C[C@H](NC(=O)CCCC/C=C/CCCCC(=O)N[C@H]2CN(C(=O)CCCC)C2=O)C1=O
Staphylococcus aureus
  Activity: 89%
Actinomadura sp. R39
  Activity: 90%
Enterococcus faecium
  Activity: 5%

## C=CCCC(=O)N1C[C@H](NC(=O)CCCCCC)C1=O
Staphylococcus aureus
  Activity: 100%
Actinomadura sp. R39
  Activity: 92%
Enterococcus faecium
  Activity: 6%

## C=CCCCC(=O)N[C@H]1CN(C(=O)CCCC=C)C1=O
Staphylococcus aureus
  Activity: 100%
Actinomadura sp. R39
  Activity: 90%
Enterococcus faecium
  Activity: 17%

## C=CCCCC(=O)N1C[C@H](NC(=O)CCC=C)C1=O
Staphylococcus aureus
  Activity: 100%
Actinomadura sp. R39
  Activity: 99%
Enterococcus faecium
  Activity: 39%
